Experimental data as given in patent US20250186408A1, “TREATMENT OF PHARMACORESISTANT EPILEPSY” (Katholieke Universiteit Leuven, priority 2021, published 2025).
Where two headings read alike, the source gives them in different places.

Key:
ADRA1A = biological target: T1, ADRA1A (Homo sapiens, UniProt P35348); assay: Calcium Flux ADRA1A Antagonist; conditions: for Emax: read-out: Max response
T1 sequence (P35348 1-466): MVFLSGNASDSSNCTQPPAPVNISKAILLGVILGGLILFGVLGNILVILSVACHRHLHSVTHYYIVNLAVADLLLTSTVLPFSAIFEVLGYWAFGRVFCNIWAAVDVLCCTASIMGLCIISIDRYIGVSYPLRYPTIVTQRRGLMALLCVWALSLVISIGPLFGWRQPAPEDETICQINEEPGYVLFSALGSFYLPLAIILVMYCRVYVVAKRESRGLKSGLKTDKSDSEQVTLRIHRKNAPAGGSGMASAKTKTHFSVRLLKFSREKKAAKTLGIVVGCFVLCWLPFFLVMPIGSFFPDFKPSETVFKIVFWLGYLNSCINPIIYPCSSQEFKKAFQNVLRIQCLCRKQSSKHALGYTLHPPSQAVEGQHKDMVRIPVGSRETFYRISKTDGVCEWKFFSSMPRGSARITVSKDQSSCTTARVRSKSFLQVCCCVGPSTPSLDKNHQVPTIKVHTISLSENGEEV
Description: In vitro pharmacological profiling of compounds was done against 78 functional assays for 47 common off-targets (30) by Eurofins DiscoverX Corporation (Fremont, CA, USA) using their SAFETYscan E/IC50 ELECT service (Cat Ref 87-1003DR, Safety47 Panel Dose Response). […] Compounds were tested in a range of 10 concentrations, following a 3-fold serial dilution, starting from 10 μM. The assays were performed utilizing the PathHunter enzyme fragment complementation (EFC) technology, FLIPR®-based cellular screening assays, and KINOMEscan kinase binding assays.
Prior to testing, cells (10,000 cells/well) were expanded from freezer stocks and seeded into a total volume of 50 μL into black walled, clear-bottom, Poly-D-lysine coated 384-well microplates and incubated at 37° C. […] Assays were performed in 1× dye loading buffer consisting of 1× Dye (DiscoverX, Calcium No Wash^PLUS kit, Catalog No. 90-0091), 1× Additive A and 2.5 mM Probenecid in HBSS/20 mM HEPES. Probenecid was prepared fresh. Prior to testing, media was aspirated from cells and replaced with 25 μL dye loading buffer. Cells were incubated for 45 min at 37° C. and then 20 min at RT. For agonist determination, 25 μL of 2× compound in HBSS/20 mM HEPES was added using a FLIPR Tetra (MDS). For antagonist determination, cells were pre-incubated with sample followed by agonist challenge at the EC80 concentration. 25 μL of 2× sample was added and cells were incubated for 30 min at RT in the dark to equilibrate plate temperature. After incubation, antagonist determination was initiated by addition of 25 μL of 1× compound with 3×EC80 agonist using FLIPR. For both agonist and antagonist formats, activity was measure on a FLIPR Tetra (MDS). Calcium mobilization was monitored for 2 min with a 5 sec baseline read.
FLIPR read—Area under the curve, was calculated for the entire 2 min read. Compound activity was analysed using CBIS data analysis suite (ChemInnovation, CA).

HRH2 = HRH2 (Homo sapiens, UniProt P25021); assay: cAMP HRH2 Antagonist; type: cell-based; conditions: for Emax: read-out: Max response
Description: (§1) cAMP Hunter cell lines were expanded from freezer stocks. […] For Gi agonist determination, cells were incubated with sample in the presence of EC80 forskolin to induce response. For both conditions, media was aspirated from cells and replaced with 15 μL 2:1 HBSS/10 mM HEPES:cAMP XS+ Ab reagent. […] 5 μL of 4× sample was added to cells and incubated at 37° C. or room temperature (RT) for 30 or 60 min. Final assay vehicle concentration was 1%. […] Media was aspirated from cells and replaced with 10 μL 1:1 HBSS/HEPES:cAMP XS+ Ab reagent. […] For Gi coupled GPCRs, EC80 forskolin was included. […] Compound activity was analyzed using CBIS data analysis suite (ChemInnovation, CA).

nAChR (a4/b2) = nAChR (a4/b2) (Homo sapiens, UniProt P17787+P43681); assay: Ion Channel nAChR (a4/b2) Opener; type: cell-based; conditions: for Emax: Ion Channel nAChR (a4/b2) Opener, read-out: Max response
[1] = Pharmacokinetic analysis in naïve mice; conditions: single i.p. 300 mg/kg, male NMRI mice
Description: After the treatment period, blood samples were drawn from the tail veins, collected in Greiner MiniCollect K2EDTA tubes, and centrifuged twice for 5 min at 15,000 g to obtain plasma samples. Three volumes of acetonitrile were added to one volume of plasma to precipitate out the proteins. The samples were vortexed for 20 s and placed on ice. Immediately after, they were centrifuged at 5,000 g for 10 min and again at 10,000 g for 2 min. The resulting supernatants were transferred to Eppendorf tubes and centrifuged for 2 min at 10,000 g. Finally, the supernatants were collected for analysis by LC-MS/MS to determine the targeted compound concentration. Percentage recovery was determined as follows: known concentrations of the compound were spiked into the blank plasma and acetonitrile was added (3:1 ratio) to precipitate out the proteins. Samples were vortexed for 20 s and placed on ice. The resulting supernatants were isolated via centrifugation as described above. The targeted compounds were identified using LC-MS/MS to detect their characteristic ions. Plasma concentrations at each point were plotted as a function of time.
Brain samples were collected at the same time points as described for blood samples. Male NMRI mice were overdosed with dolethal via i.p. administration. Mice were perfused with 0.9% saline and brains were collected in Eppendorf tubes. Brains were weighed, whereafter 400 μL of acetonitrile was added to the samples. […] Homogenized samples were centrifuged at 5,000 g for 10 min and again at 10,000 g for 2 min. The resulting supernatants were transferred to Eppendorf tubes and centrifuged for 2 min at 10,000 g. Finally, the supernatants were collected for analysis by LC-MS/MS to determine the targeted compound concentration in the brain tissue.
The compound concentrations in mouse plasma and brain were determined by LC-MS/MS.

CNR1 = CNR1 (Homo sapiens, UniProt P21554); assay: cAMP CNR1 Antagonist; conditions: for Emax: read-out: Max response
Description: (§2) In vitro pharmacological profiling of compounds was done against 78 functional assays for 47 common off-targets (30) by Eurofins DiscoverX Corporation (Fremont, CA, USA) using their SAFETYscan E/IC50 ELECT service (Cat Ref 87-1003DR, Safety47 Panel Dose Response). […] Compounds were tested in a range of 10 concentrations, following a 3-fold serial dilution, starting from 10 μM.
cAMP Hunter cell lines were expanded from freezer stocks. Prior to testing, cells were seeded in a total volume of 20 μL into white walled 384-well microplates and incubated at 37° C. cAMP modulation was determined using the DiscoverX HitHunter cAMP XS+ assay. For Gs agonist determination, cells were incubated with sample to induce response. For Gi agonist determination, cells were incubated with sample in the presence of EC80 forskolin to induce response. For both conditions, media was aspirated from cells and replaced with 15 μL 2:1 HBSS/10 mM HEPES:cAMP XS+ Ab reagent. Intermediate dilution of sample stocks was performed to generate 4× sample in assay buffer (containing 4×EC80 forskolin in the case of antagonist determination). 5 μL of 4× sample was added to cells and incubated at 37° C. or room temperature (RT) for 30 or 60 min. Final assay vehicle concentration was 1%. For antagonist determination, cells were pre-incubated with sample followed by agonist challenge at the EC80 concentration. Media was aspirated from cells and replaced with 10 μL 1:1 HBSS/HEPES:cAMP XS+ Ab reagent. 5 μL of 4× compound was added to the cells and incubated at 37° C. or RT for 30 min. 5 μL of 4×EC80 agonist was added to the cells and incubated at 37° C. or RT for 30 or 60 min. For Gi coupled GPCRs, EC80 forskolin was included. […] Microplates were read following signal generation with a PerkinElmer Envision™ instrument for chemiluminescent signal detection. Compound activity was analyzed using CBIS data analysis suite (ChemInnovation, CA). For Gs agonist mode assays, percentage activity was calculated using the following equation:

HTR1B = HTR1B (Homo sapiens, UniProt P28222); assay: cAMP HTR1B Agonist; conditions: for Emax: read-out: Max response
Description: as §2
cAMP Hunter cell lines were expanded from freezer stocks. Prior to testing, cells were seeded in a total volume of 20 μL into white walled 384-well microplates and incubated at 37° C. cAMP modulation was determined using the DiscoverX HitHunter cAMP XS+ assay. For Gs agonist determination, cells were incubated with sample to induce response. For Gi agonist determination, cells were incubated with sample in the presence of EC80 forskolin to induce response. For both conditions, media was aspirated from cells and replaced with 15 μL 2:1 HBSS/10 mM HEPES:cAMP XS+ Ab reagent. Intermediate dilution of sample stocks was performed to generate 4× sample in assay buffer (containing 4×EC80 forskolin in the case of antagonist determination). 5 μL of 4× sample was added to cells and incubated at 37° C. or room temperature (RT) for 30 or 60 min. Final assay vehicle concentration was 1%. For antagonist determination, cells were pre-incubated with sample followed by agonist challenge at the EC80 concentration. Media was aspirated from cells and replaced with 10 μL 1:1 HBSS/HEPES:cAMP XS+ Ab reagent. 5 μL of 4× compound was added to the cells and incubated at 37° C. or RT for 30 min. 5 μL of 4×EC80 agonist was added to the cells and incubated at 37° C. or RT for 30 or 60 min. For Gi coupled GPCRs, EC80 forskolin was included. […] Microplates were read following signal generation with a PerkinElmer Envision™ instrument for chemiluminescent signal detection. Compound activity was analyzed using CBIS data analysis suite (ChemInnovation, CA).

DAT = biological target: T2, DAT (Homo sapiens, UniProt Q01959); assay: Transporter DAT Blocker; type: cell-based; conditions: for Emax: Transporter DAT Blocker, read-out: Max response
T2 construct: Eurofins DiscoverX Corporation 87-1003DR; host or cells: unnamed cell lines
Description: After cell plating and incubation, media was removed an 25 μL of 1× compound in 1×HBSS/0.1% BSA was added. Compounds were incubated with cells for 30 min at 37° C. After compound incubation, 25 μL of 1× dye loading buffer (1× dye, 1×HBSS/20 mM HEPES) was added to the wells. Cells were incubated for 30-60 min at 37° C. After incubation, microplates were transferred to a PerkinElmer Envision™ instrument for fluorescent signal detection. […] For blocker mode assays, percentage of inhibition was calculated using the following formula: […]

ADRB2 = ADRB2 (Homo sapiens, UniProt P07550); assay: cAMP ADRB2 Antagonist; type: cell-based; conditions: for Emax: read-out: Max response
Description: as §1

AChE = biological target: T3, AChE (Homo sapiens, UniProt P22303); assay: Enzymatic AChE Inhibitor; type: biochemical; conditions: for IC50: read-out: RC50, result type IC50; for Emax: read-out: Max response
T3 construct: purchased R&D Systems
Description: Enzyme preparations were sourced from various vendors-AChE (R&D Systems), COX1 and COX2 (BPS Bioscience), MAOA (Sigma), PDE3A and PDE4D2 (Signal Chem). AChE: enzyme and test compound were pre-incubated for 15 min at RT before substrate addition. Acetylthiocholine and DTNB were added and incubated at RT for 30 min. Signal was detected by measuring absorbance at 405 nm. COX1 and COX2: enzyme stocks were diluted in assay buffer (40 mM Tris-HCl, 1×PBS, 0.5 mM Phenol, 0.01% Tween 20 and 10 nM Hematin) and allowed to equilibrate with compounds at RT for 30 min (binding incubation). Arachidonic acid (1.7 μM) and Ampliflu Red (2.5 μM) were prepared and dispended into a reaction plate. Plates were read immediately on a fluorimeter with the emission detection at 590 nm and excitation wavelength 544 nm. MAOA: enzyme and test compound were pre-incubated for 15 min at 37° C. before substrate addition. The reaction was initiated by addition of kynuramine and incubated at 37° C. for 30 min. The reaction was terminated by addition of NaOH. The amount of 4-hydroquinoline formed was determined through spectrofluorometric readout with the emission detection at 380 nm and excitation wavelength 310 nm. PDE3A and PDE4D2: enzyme and test compound were pre-incubated for 15 min at RT before substrate addition. cAMP substrate (at a concentration equal to EC80) was added and incubated at RT for 30 min. Enzyme reaction was terminated by addition of 9 mM IBMX. Signal was detected using the HitHunter® cAMP detection kit. Microplates were transferred to a PerkinElmer Envision™ instrument and read out as described for each assay. […] For enzyme activity assays, percentage inhibition was calculated using the following equation: […]

CNR1, sequence (P21554 whole entry): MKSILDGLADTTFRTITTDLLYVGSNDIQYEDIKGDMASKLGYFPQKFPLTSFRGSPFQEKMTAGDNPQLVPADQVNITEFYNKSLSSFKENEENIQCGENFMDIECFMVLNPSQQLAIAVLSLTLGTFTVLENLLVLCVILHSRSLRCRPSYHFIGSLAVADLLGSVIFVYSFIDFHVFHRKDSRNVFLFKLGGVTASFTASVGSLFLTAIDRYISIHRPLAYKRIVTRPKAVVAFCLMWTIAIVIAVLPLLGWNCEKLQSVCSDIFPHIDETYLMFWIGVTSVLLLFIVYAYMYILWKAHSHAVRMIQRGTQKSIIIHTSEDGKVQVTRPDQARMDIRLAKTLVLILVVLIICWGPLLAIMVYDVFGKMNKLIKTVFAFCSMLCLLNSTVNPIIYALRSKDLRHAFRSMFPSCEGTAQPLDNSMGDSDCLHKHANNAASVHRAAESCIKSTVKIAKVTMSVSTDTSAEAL
T3 sequence (P22303 32-614): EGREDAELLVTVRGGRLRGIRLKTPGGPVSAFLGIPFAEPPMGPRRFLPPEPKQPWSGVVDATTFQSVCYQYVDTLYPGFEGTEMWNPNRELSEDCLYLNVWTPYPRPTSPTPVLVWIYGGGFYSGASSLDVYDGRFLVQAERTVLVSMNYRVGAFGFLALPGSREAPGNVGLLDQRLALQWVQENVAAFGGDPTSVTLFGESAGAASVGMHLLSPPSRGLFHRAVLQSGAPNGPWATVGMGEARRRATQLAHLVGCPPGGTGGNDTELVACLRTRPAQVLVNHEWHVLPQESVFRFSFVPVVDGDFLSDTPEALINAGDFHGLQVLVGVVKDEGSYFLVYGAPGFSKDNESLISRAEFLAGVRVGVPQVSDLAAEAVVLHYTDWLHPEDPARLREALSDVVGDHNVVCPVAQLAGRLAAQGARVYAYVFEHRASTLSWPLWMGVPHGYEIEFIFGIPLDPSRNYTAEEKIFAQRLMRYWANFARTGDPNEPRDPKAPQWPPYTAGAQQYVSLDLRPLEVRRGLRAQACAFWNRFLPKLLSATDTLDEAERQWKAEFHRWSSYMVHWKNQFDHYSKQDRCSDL
HTR1B, sequence (P28222 whole entry): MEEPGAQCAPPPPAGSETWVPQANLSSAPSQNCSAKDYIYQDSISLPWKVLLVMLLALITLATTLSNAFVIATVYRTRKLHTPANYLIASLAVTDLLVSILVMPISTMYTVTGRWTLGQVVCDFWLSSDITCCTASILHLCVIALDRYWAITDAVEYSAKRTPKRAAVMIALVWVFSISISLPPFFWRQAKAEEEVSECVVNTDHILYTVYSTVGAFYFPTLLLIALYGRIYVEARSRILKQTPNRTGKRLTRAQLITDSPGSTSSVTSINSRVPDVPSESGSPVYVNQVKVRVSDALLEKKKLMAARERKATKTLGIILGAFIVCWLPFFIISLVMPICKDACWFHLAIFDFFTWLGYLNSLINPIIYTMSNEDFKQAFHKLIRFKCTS
nAChR (a4/b2), sequence (P43681 29-627 limits assumed): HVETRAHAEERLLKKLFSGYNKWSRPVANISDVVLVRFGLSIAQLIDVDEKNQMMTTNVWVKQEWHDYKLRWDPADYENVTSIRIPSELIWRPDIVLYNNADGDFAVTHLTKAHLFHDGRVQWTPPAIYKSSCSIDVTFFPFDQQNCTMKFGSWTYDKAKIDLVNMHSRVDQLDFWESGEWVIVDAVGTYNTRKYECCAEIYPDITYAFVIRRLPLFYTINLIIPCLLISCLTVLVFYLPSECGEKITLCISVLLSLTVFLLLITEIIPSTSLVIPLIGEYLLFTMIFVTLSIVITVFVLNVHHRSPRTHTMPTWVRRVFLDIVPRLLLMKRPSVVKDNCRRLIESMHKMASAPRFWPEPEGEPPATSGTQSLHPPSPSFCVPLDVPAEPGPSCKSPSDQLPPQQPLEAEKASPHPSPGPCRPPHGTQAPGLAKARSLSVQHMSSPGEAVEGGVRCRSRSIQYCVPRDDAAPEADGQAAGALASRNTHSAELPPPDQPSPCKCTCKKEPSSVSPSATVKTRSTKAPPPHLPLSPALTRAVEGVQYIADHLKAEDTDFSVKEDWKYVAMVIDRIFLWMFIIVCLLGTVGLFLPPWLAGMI
nAChR (a4/b2), sequence (P17787 26-502): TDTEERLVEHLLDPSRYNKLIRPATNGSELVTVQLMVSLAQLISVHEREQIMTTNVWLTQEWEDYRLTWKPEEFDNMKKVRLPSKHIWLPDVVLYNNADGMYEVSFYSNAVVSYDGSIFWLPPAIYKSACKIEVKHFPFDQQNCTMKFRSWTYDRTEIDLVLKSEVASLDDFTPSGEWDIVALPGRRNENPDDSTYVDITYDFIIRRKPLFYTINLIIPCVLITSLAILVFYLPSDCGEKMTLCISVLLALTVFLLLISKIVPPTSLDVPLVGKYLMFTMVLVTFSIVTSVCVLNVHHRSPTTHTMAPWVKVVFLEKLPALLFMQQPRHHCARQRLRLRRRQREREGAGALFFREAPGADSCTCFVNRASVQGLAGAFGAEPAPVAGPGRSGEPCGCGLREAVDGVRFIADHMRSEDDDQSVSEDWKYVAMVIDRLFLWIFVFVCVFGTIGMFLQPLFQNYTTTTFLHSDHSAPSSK
HRH2, sequence (P25021 whole entry): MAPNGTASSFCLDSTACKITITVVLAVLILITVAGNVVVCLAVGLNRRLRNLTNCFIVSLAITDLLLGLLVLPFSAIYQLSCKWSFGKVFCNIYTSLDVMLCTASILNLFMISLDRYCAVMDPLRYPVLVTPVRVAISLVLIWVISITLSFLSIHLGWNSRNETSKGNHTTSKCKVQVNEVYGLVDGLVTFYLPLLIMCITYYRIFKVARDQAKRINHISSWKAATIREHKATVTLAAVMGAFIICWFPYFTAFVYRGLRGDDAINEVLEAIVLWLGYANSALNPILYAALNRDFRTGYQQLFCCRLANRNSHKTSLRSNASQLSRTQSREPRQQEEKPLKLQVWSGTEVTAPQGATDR
ADRB2, sequence (P07550 whole entry): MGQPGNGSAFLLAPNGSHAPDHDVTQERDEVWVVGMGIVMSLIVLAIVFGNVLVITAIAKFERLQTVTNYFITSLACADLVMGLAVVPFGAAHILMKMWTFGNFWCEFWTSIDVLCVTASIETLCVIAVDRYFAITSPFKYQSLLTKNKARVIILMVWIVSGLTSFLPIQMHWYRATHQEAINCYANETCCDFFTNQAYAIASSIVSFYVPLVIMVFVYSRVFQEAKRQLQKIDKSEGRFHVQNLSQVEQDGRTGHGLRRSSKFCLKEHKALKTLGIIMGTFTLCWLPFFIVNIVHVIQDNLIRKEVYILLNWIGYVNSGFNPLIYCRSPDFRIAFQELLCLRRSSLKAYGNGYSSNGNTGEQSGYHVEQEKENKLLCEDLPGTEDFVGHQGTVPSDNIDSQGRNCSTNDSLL
T2 sequence (Q01959 whole entry): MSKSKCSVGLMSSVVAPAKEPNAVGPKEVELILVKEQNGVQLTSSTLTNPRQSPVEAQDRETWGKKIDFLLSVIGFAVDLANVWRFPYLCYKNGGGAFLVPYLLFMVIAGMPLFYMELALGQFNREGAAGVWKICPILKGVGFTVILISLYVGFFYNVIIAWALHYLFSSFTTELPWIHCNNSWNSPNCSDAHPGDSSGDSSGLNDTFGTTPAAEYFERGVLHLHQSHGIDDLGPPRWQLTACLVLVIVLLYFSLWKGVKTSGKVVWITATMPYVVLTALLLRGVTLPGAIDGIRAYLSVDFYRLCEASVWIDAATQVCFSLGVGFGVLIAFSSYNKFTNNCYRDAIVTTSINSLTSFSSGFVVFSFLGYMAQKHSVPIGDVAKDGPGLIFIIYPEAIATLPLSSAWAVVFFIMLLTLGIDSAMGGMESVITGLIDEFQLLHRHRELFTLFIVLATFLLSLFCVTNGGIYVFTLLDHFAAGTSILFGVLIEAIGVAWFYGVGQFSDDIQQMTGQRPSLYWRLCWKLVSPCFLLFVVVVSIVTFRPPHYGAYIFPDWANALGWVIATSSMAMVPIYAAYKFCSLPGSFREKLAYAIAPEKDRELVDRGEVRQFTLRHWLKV

Compound | IC50 (ADRA1A) [µM] | Emax (ADRA1A) [%] | EC50 (nAChR (a4/b2)) [µM] | Emax (nAChR (a4/b2)) [%] | time at which brain concentration peaked [1] [min] | time at which plasma concentration peaked [1] [min] | IC50 (CNR1) [µM] | Emax (CNR1) [%] | EC50 (HTR1B) [µM] | Emax (HTR1B) [%] | IC50 (DAT) [µM] | Emax (DAT) [%] | IC50 (AChE; Enzymatic AChE Inhibitor) [µM] | further results
CC(C)(C)c1ccc(C#CC(O)c2ccccc2)cc1 (racemic) [Compound 3.3, rac-3-(4-(tert-butyl)phenyl)-1-phenylprop-2-yn-1-ol] | > 10 | 0 | > 10 | 0 | 30 | 30 | > 10 | 17.5 | > 10 | 5.2 | > 10 | 0 | > 10 | IC50 (HRH2): > 10 µM; Emax (HRH2): 2.7%; IC50 (ADRB2): > 10 µM; Emax (ADRB2): 0%; Emax (AChE): 3.8%
Clc1cccc(C#Cc2n[nH]c3ncccc23)c1 [Compound 10.1, 3-((3-chlorophenyl)ethynyl)-1H-pyrazolo[3,4-b]pyridine] | > 10 | 0 | > 10 | 0 | 150 | 60 to 240 | > 10 | 0 | > 10 | 9.3 | > 10 | 33.1 | > 10 | Emax (HRH2; cAMP HRH2 Antagonist): 13.9%; IC50 (HRH2; cAMP HRH2 Antagonist, read-out: RC50, result type IC50): > 10 µM; Emax (ADRB2; cAMP ADRB2 Antagonist): 39.9%; IC50 (ADRB2; cAMP ADRB2 Antagonist, read-out: RC50, result type IC50): > 10 µM; Emax (AChE; Enzymatic AChE Inhibitor): 1.3%
